Measured values as given in ChEMBL document CHEMBL1201862, “PubChem BioAssay data set” (2004).
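Cells were grown in 96-well plates and exposed to each compound for 48 hours at five concentrations; endpoints were interpolated linearly between bracketing concentrations, or set to the highest concentration if not reached. GI50 = concentration required for 50% inhibition of growth.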 Activity calls are given as the source filed them. Rule as the data show it: active = GI50 up to about 1.1 µM and inactive = higher.

Assays:
Experiment in all cases: inhibition of tumour cell growth, NCI panel, 48 h
786-0 = test system: 786-0
A498 = test system: A498
A549 = test system: A549
ACHN = test system: ACHN
BT-549 = test system: BT-549
CAKI-1 = test system: CAKI-1
CCRF-CEM = test system: CCRF-CEM
COLO 205 = test system: COLO 205
DU-145 = test system: DU-145
EKVX = test system: EKVX
HCC 2998 = test system: HCC 2998
HCT-116 = test system: HCT-116
HCT-15 = test system: HCT-15
HL-60 = test system: HL-60
HOP-62 = test system: HOP-62
HOP-92 = test system: HOP-92
HT-29 = test system: HT-29
Hs-578T = test system: Hs-578T
IGROV-1 = test system: IGROV-1
K562 = test system: K562
KM12 = test system: KM12
LOX IMVI = test system: LOX IMVI
M14 = test system: M14
MCF7 = test system: MCF7
MDA-MB-231 = test system: MDA-MB-231
MDA-MB-435 = test system: MDA-MB-435
MDA-N = test system: MDA-N
MOLT-4 = test system: MOLT-4
Malme-3M = test system: Malme-3M
NCI-H226 = test system: NCI-H226
NCI-H23 = test system: NCI-H23
NCI-H460 = test system: NCI-H460
NCI/ADR-RES = test system: NCI/ADR-RES
OVCAR-3 = test system: OVCAR-3
OVCAR-4 = test system: OVCAR-4
OVCAR-5 = test system: OVCAR-5
OVCAR-8 = test system: OVCAR-8
PC-3 = test system: PC-3
RPMI-8226 = test system: RPMI-8226
RXF 393 = test system: RXF 393
SF-268 = test system: SF-268
SF-295 = test system: SF-295
SF-539 = test system: SF-539
SK-MEL-28 = test system: SK-MEL-28
SK-MEL-2 = test system: SK-MEL-2
SK-MEL-5 = test system: SK-MEL-5
SK-OV-3 = test system: SK-OV-3
SN12C = test system: SN12C
SNB-19 = test system: SNB-19
SNB-75 = test system: SNB-75
SR = test system: SR
SW-620 = test system: SW-620
T47D = test system: T47D
TK-10 = test system: TK-10
U-251 = test system: U-251
UACC-257 = test system: UACC-257
UACC-62 = test system: UACC-62
UO-31 = test system: UO-31
NCI-H522 = test system: NCI-H522

CC1CCCC(C(O)CC2CC(=O)NC(=O)C2)C1O (stereo not drawn)
GI50 (786-0): > 100 µM (inactive)
GI50 (A498): > 100 µM (inactive)
GI50 (A549): > 100 µM (inactive)
GI50 (ACHN): > 100 µM (inactive)
GI50 (BT-549): > 100 µM (inactive)
GI50 (CAKI-1): > 100 µM (inactive)
GI50 (CCRF-CEM): > 100 µM (inactive)
GI50 (COLO 205): > 100 µM (inactive)
GI50 (DU-145): > 100 µM (inactive)
GI50 (EKVX): > 100 µM (inactive)
GI50 (HCC 2998): > 100 µM (inactive)
GI50 (HCT-116): > 100 µM (inactive)
GI50 (HCT-15): > 100 µM
GI50 (HL-60): > 100 µM (inactive)
GI50 (HOP-62): > 100 µM (inactive)
GI50 (HOP-92): > 100 µM (inactive)
GI50 (HT-29): > 100 µM (inactive)
GI50 (Hs-578T): > 100 µM (inactive)
GI50 (IGROV-1): > 100 µM (inactive)
GI50 (K562): > 100 µM (inactive)
GI50 (KM12): > 100 µM (inactive)
GI50 (LOX IMVI): > 100 µM (inactive)
GI50 (M14): > 100 µM (inactive)
GI50 (MCF7): > 100 µM (inactive)
GI50 (MDA-MB-231): > 100 µM (inactive)
GI50 (MDA-MB-435): > 100 µM (inactive)
GI50 (MDA-N): > 100 µM (inactive)
GI50 (MOLT-4): > 100 µM (inactive)
GI50 (Malme-3M): > 100 µM (inactive)
GI50 (NCI-H226): > 100 µM (inactive)
GI50 (NCI-H23): > 100 µM (inactive)
GI50 (NCI-H460): > 100 µM (inactive)
GI50 (NCI/ADR-RES): > 100 µM (inactive)
GI50 (OVCAR-3): > 100 µM (inactive)
GI50 (OVCAR-4): > 100 µM (inactive)
GI50 (OVCAR-5): > 100 µM (inactive)
GI50 (OVCAR-8): > 100 µM (inactive)
GI50 (PC-3): > 100 µM (inactive)
GI50 (RPMI-8226): > 100 µM (inactive)
GI50 (RXF 393): > 100 µM (inactive)
GI50 (SF-268): > 100 µM (inactive)
GI50 (SF-295): > 100 µM (inactive)
GI50 (SF-539): > 100 µM (inactive)
GI50 (SK-MEL-28): > 100 µM (inactive)
GI50 (SK-MEL-2): > 100 µM (inactive)
GI50 (SK-MEL-5): > 100 µM (inactive)
GI50 (SK-OV-3): > 100 µM (inactive)
GI50 (SN12C): > 100 µM (inactive)
GI50 (SNB-19): > 100 µM (inactive)
GI50 (SNB-75): > 100 µM (inactive)
GI50 (SR): > 100 µM (inactive)
GI50 (SW-620): > 100 µM (inactive)
GI50 (T47D): > 100 µM (inactive)
GI50 (TK-10): > 100 µM (inactive)
GI50 (U-251): > 100 µM (inactive)
GI50 (UACC-257): > 100 µM (inactive)
GI50 (UACC-62): > 100 µM (inactive)
GI50 (UO-31): > 100 µM (inactive)

CC1(C)C/C(=N/O)c2c(nc3ccc4ccccc4c3c2-c2ccc(Cl)cc2)C1
GI50 (786-0): 3.79 µM (inactive)
GI50 (A498): 19.5 µM (inactive)
GI50 (A549): 19.4 µM (inactive)
GI50 (ACHN): 6.79 µM (inactive)
GI50 (BT-549): 10.6 µM (inactive)
GI50 (CAKI-1): 13.5 µM (inactive)
GI50 (CCRF-CEM): 10.9 µM (inactive)
GI50 (COLO 205): 18.2 µM (inactive)
GI50 (DU-145): 16.5 µM (inactive)
GI50 (EKVX): 15.7 µM (inactive)
GI50 (HCC 2998): 21.6 µM (inactive)
GI50 (HCT-116): 11 µM (inactive)
GI50 (HCT-15): 16.4 µM
GI50 (HL-60): 9.14 µM (inactive)
GI50 (HOP-62): 23.2 µM (inactive)
GI50 (HOP-92): 18.3 µM (inactive)
GI50 (HT-29): 15.4 µM (inactive)
GI50 (Hs-578T): 23.3 µM (inactive)
GI50 (IGROV-1): 14.9 µM (inactive)
GI50 (K562): 19 µM (inactive)
GI50 (KM12): 42 µM (inactive)
GI50 (LOX IMVI): 13.7 µM (inactive)
GI50 (M14): 33.5 µM (inactive)
GI50 (MCF7): 11.2 µM (inactive)
GI50 (MDA-MB-231): 11.6 µM (inactive)
GI50 (MDA-MB-435): 60.1 µM (inactive)
GI50 (MDA-N): 25.1 µM (inactive)
GI50 (MOLT-4): 18.2 µM (inactive)
GI50 (NCI-H226): 21 µM (inactive)
GI50 (NCI-H23): 22 µM (inactive)
GI50 (NCI-H460): 6.14 µM (inactive)
GI50 (NCI-H522): 15.3 µM (inactive)
GI50 (NCI/ADR-RES): 17.5 µM (inactive)
GI50 (OVCAR-3): 12.3 µM (inactive)
GI50 (OVCAR-4): 13.8 µM (inactive)
GI50 (OVCAR-5): 40.7 µM (inactive)
GI50 (OVCAR-8): 12.5 µM (inactive)
GI50 (PC-3): 25.9 µM (inactive)
GI50 (RPMI-8226): 27.2 µM (inactive)
GI50 (RXF 393): 17.6 µM (inactive)
GI50 (SF-268): 14.2 µM (inactive)
GI50 (SF-295): 10.9 µM (inactive)
GI50 (SF-539): 16.6 µM (inactive)
GI50 (SK-MEL-28): 31.3 µM (inactive)
GI50 (SK-MEL-2): 43.7 µM (inactive)
GI50 (SK-MEL-5): 37.2 µM (inactive)
GI50 (SK-OV-3): 15 µM (inactive)
GI50 (SN12C): 10.8 µM (inactive)
GI50 (SNB-19): 35 µM (inactive)
GI50 (SNB-75): 16.2 µM (inactive)
GI50 (SR): 4.75 µM (inactive)
GI50 (SW-620): 18.3 µM (inactive)
GI50 (T47D): 12.1 µM (inactive)
GI50 (TK-10): 16.1 µM (inactive)
GI50 (U-251): 11.5 µM (inactive)
GI50 (UACC-257): 25.4 µM (inactive)
GI50 (UACC-62): 17.3 µM (inactive)
GI50 (UO-31): 16.8 µM (inactive)

CCN(CC)C(=S)SC1C(=O)NC(=O)NC1=O
GI50 (786-0): > 100 µM (inactive)
GI50 (A498): 0.0106 µM (active)
GI50 (A549): > 100 µM (inactive)
GI50 (ACHN): > 100 µM (inactive)
GI50 (BT-549): > 100 µM (inactive)
GI50 (CAKI-1): > 100 µM (inactive)
GI50 (CCRF-CEM): > 100 µM (inactive)
GI50 (COLO 205): > 100 µM (inactive)
GI50 (DU-145): > 100 µM (inactive)
GI50 (EKVX): > 100 µM (inactive)
GI50 (HCC 2998): > 100 µM (inactive)
GI50 (HCT-116): > 100 µM (inactive)
GI50 (HCT-15): > 100 µM
GI50 (HL-60): > 100 µM (inactive)
GI50 (HOP-62): > 100 µM (inactive)
GI50 (HOP-92): > 100 µM (inactive)
GI50 (HT-29): > 100 µM (inactive)
GI50 (Hs-578T): > 100 µM (inactive)
GI50 (IGROV-1): > 100 µM (inactive)
GI50 (K562): > 100 µM (inactive)
GI50 (KM12): > 100 µM (inactive)
GI50 (LOX IMVI): > 100 µM (inactive)
GI50 (MCF7): > 100 µM (inactive)
GI50 (MDA-MB-231): > 100 µM (inactive)
GI50 (MDA-MB-435): > 100 µM (inactive)
GI50 (MDA-N): > 100 µM (inactive)
GI50 (MOLT-4): > 100 µM (inactive)
GI50 (Malme-3M): > 100 µM (inactive)
GI50 (NCI-H226): > 100 µM (inactive)
GI50 (NCI-H23): > 100 µM (inactive)
GI50 (NCI-H460): 0.017 µM (active)
GI50 (NCI-H522): > 100 µM (inactive)
GI50 (NCI/ADR-RES): 0.6 µM (active)
GI50 (OVCAR-3): > 100 µM (inactive)
GI50 (OVCAR-4): > 100 µM (inactive)
GI50 (OVCAR-5): > 100 µM (inactive)
GI50 (OVCAR-8): > 100 µM (inactive)
GI50 (PC-3): > 100 µM (inactive)
GI50 (RPMI-8226): > 100 µM (inactive)
GI50 (RXF 393): > 100 µM (inactive)
GI50 (SF-268): > 100 µM (inactive)
GI50 (SF-295): > 100 µM (inactive)
GI50 (SF-539): > 100 µM (inactive)
GI50 (SK-MEL-28): > 100 µM (inactive)
GI50 (SK-MEL-2): > 100 µM (inactive)
GI50 (SK-MEL-5): > 100 µM (inactive)
GI50 (SK-OV-3): > 100 µM (inactive)
GI50 (SN12C): > 100 µM (inactive)
GI50 (SNB-75): > 100 µM (inactive)
GI50 (SR): > 100 µM (inactive)
GI50 (SW-620): > 100 µM (inactive)
GI50 (T47D): > 100 µM (inactive)
GI50 (TK-10): > 100 µM (inactive)
GI50 (U-251): > 100 µM (inactive)
GI50 (UACC-257): > 100 µM (inactive)
GI50 (UACC-62): > 100 µM (inactive)
GI50 (UO-31): > 100 µM (inactive)
